In US4981954A, “Novel azoxy compounds and process for production thereof” (Kowa Company, Ltd., priority 1987, dated 1991):
Converted amounts (≈) assume the structure as drawn.

How the values were obtained:
Format in all cases: cell-based
[1] = test system: Trichophyton mentagraphytes; assay: Antifungal activity, minimum growth inhibition concentration (MIC), Trichophyton mentagraphytes
Description: (§1) The minimum growth inhibition concentrations (MIC) of the present substances against eumycetes are as tabulated below.
(§2) Culture medium: Sabouraud dextrose agar
(§3) Culturing conditions: 27° C., 2 to 4 days

[2] = test system: Trichophyton rubrum; assay: Antifungal activity, minimum growth inhibition concentration (MIC), Trichophyton rubrum; settings: Sabouraud dextrose agar, 27° C., 2 to 4 days
Description: as §1, §2, §3

[3] = test system: Aspergillus fumigatus; assay: Antifungal activity, minimum growth inhibition concentration (MIC), Aspergillus fumigatus; settings: Sabouraud dextrose agar, 27° C., 2 to 4 days
Description: as §1, §2, §3

[4] = test system: Cryptococcus neoformans; assay: Antifungal activity, minimum growth inhibition concentration (MIC), Cryptococcus neoformans; settings: Sabouraud dextrose agar, 27° C., 2 to 4 days
Description: as §1, §2, §3

[5] = test system: Candida albicans; assay: Antifungal activity, minimum growth inhibition concentration (MIC), Candida albicans; settings: Sabouraud dextrose agar, 27° C., 2 to 4 days
Description: as §1, §2, §3

Row | Compound | MIC [1] | MIC [2] | MIC [3] | MIC [4] | MIC [5]
1 | CCCCC=C[N+]([O-])=NC(C)C(C)=O (stereo not shown) [KA-7367A] | 6.25 µg/mL (≈ 31.5 µM) | 3.2 µg/mL (≈ 16.1 µM) | 6.25 µg/mL (≈ 31.5 µM) | 3.2 µg/mL (≈ 16.1 µM) | 1.6 µg/mL (≈ 8.07 µM)
2 | CCCCC=C[N+]([O-])=NC(C)C(C)O (stereo not shown) [KA-7367B] | 100 µg/mL (≈ 499 µM) | 100 µg/mL (≈ 499 µM) | 100 µg/mL (≈ 499 µM) | 100 µg/mL (≈ 499 µM) | 50 µg/mL (≈ 250 µM)
